Assay results published in PMC10605010, “Immunotechniques for the Group Determination of Macrolide Antibiotics Traces in the Environment Using a Volume-Mediated Sensitivity Enhancement Strategy” (Biosensors, 2023).
Converted amounts (≈) assume the structure as drawn. “And” between values parts separate entries of the source, which are not always exact repeats. Identical values can stand only once. Like-named read-outs stand apart in the source and are kept apart here.

Tests used:
[1] = system: antibody to immunogen BSA-cmoCLA(ae); set-up: method as in PMID 32693204; conditions: breast milk, cited from earlier work; for CR: CLA = 100
[2] = system: antibody to immunogen BSA-cmoERY(ma); conditions: milk; ERY = 100; cited from earlier work
[3] = system: antibody to immunogen BSA-cmoERY(ma); set-up: method as in PMID 25308648; conditions: milk; ERY = 100; cited from earlier work
[4] = system: anti-BSA-cmoCLA(ae) antibodies; set-up: method as in PMID 25256165; conditions: coating antigen GEL-cmoCLA(ae), cited from earlier work; for IC50: homologous; for CR: CLA = 100, recalculated from ref 18
[5] = system: anti-BSA-cmoCLA(ae) antibodies; assay: Indirect competitive ELISA (icELISA), variants by coating antigen; assay type: binding, rabbit; conditions: for CR: CLA = 100
Procedure: In present work, we investigated and compared several new-designed and previously established coating antigens, which were adsorbed on the 96-well Costar plates from 0.1 to 3.0 µg/mL solutions in CBB (pH 9.6) overnight at 4 °C. […] Solutions of these analytes (1 pg/mL–1 μg/mL) were added to wells of the plate along with anti-cmoCLA antibody in PBS-T with 1%BSA and incubated for 1 h at 25 °C in plate-shaker ST-3 L (ELMI Ltd. laboratory equipment, Riga, Latvia). GAR-HRP was used to detect antigen-antibody formed complexes for 1 h at 37 °C. The activity of the bound enzyme was detected using TMB-substrate mixture, and the intensity of colored product was read at 450 nm using a LisaScan spectrophotometer (Erba Mannheim, Czech Republic). […] The relative antibody-binding absorbance (B/B0) was determined for each concentration of analyte and used to construct a calibration curve as B/B0 versus the concentration. Structurally related macrolides CLA, ESE, ROX, AZI, DIR, TUL, and OLE were analyzed for their cross-reactions. […] Assay sensitivity, limit of detection (LOD), and working range of the assay were set as values of IC50, IC10, and IC20-IC80 range, respectively.

[6] = system: antibody to immunogen BSA-cmoCLA(ae); set-up: method as in doi:10.1039/C9QM00429G; conditions: milk, cited from earlier work; for CR: CLA = 100
[7] = coating antigen OVA-aecAZI(dma)

Compound	CR [1] [%]	CR [2] [%]	CR [3] [%]	IC50 [4] [ng/mL]	CR [4]	IC50 ([5]; coating antigen OVA(pi)-aecAZI) [ng/mL]	CR ([5]; coating antigen OVA(pi)-aecAZI)	IC50 [5, 7] [ng/mL]	CR [5, 7] [%]	IC50 ([5]; coating antigen OVA-aecAZI(ga)) [ng/mL]	CR ([5]; coating antigen OVA-aecAZI(ga)) [%]	IC50 ([5]; coating antigen OVA-cmoERY(ae)) [ng/mL]	CR ([5]; coating antigen OVA-cmoERY(ae))	CR [6] [%]	IC50 [1] [ng/mL]	LOD [1] [ng/mL]	IC50 [6] [ng/mL]	LOD [6] [ng/mL]	CR (detectability) ([5]; span over all ELISAs utilizing coated AZI conjugates)
CC[C@H]1OC(=O)[C@H](C)[C@@H](O[C@H]2C[C@@](C)(OC)[C@@H](O)[C@H](C)O2)[C@H](C)[C@@H](O[C@@H]2O[C@H](C)C[C@H](N(C)C)[C@H]2O)[C@](C)(O)C[C@@H](C)/C(=N\OCOCCOC)[C@H](C)[C@@H](O)[C@]1(C)O [ROX, roxithromycin]	97.8	92	14.8	0.14 (≈ 0.167 nM)	125%	0.051 (≈ 0.0609 nM)	86.3%	0.157 (≈ 0.188 nM)	100	0.040 (≈ 0.0478 nM)	107.5	0.125 (≈ 0.149 nM)	137.6%	21.1					
CO[C@H]1C[C@H](O[C@H]2[C@H](C)[C@@H](O[C@@H]3O[C@H](C)C[C@H](N(C)C)[C@H]3O)[C@@H](C)C[C@@]3(CO3)C(=O)[C@H](C)[C@@H](O)[C@@H](C)[C@@H](C)OC(=O)[C@@H]2C)O[C@@H](C)[C@@H]1O [OLE, oleandomycin]						45.64 (≈ 66.3 nM)	0.1%	287.2 (≈ 418 nM)	0.05	40.10 (≈ 58.3 nM)	0.11	75.75 (≈ 110 nM)	0.2%						
CC[C@H]1OC(=O)[C@H](C)[C@@H](O[C@H]2C[C@@](C)(OC)[C@@H](O)[C@H](C)O2)[C@H](C)[C@@H](O[C@@H]2O[C@H](C)C[C@H](N(C)C)[C@H]2O)[C@](C)(OC)C[C@@H](C)C(=O)[C@H](C)[C@@H](O)[C@]1(C)O [CLA, clarithromycin]	100	26.7	26.7	0.16 (≈ 0.214 nM)	100%	0.044 (≈ 0.0588 nM)	100%	0.157 (≈ 0.21 nM)	100	0.043 (≈ 0.0575 nM)	100	0.172 (≈ 0.23 nM)	100%	100	0.45 (≈ 0.602 nM)	0.12	0.16 (≈ 0.214 nM)	0.095	
CC[C@H]1OC(=O)[C@H](C)[C@@H](O[C@H]2C[C@@](C)(OC)[C@@H](O)[C@H](C)O2)[C@H](C)[C@@H](O[C@@H]2O[C@H](C)C[C@H](N(C)C)[C@H]2O)[C@](C)(O)C[C@@H](C)[C@@H]2N[C@@H](COCCOC)O[C@H]([C@H]2C)[C@]1(C)O [DIR, dirithromycin]	5.4	157	157			0.096 (≈ 0.115 nM)	45.8%	0.544 (≈ 0.651 nM)	28.9	0.136 (≈ 0.163 nM)	31.6	0.554 (≈ 0.663 nM)	31%						
CCCNC[C@]1(O)[C@H](C)O[C@@H](O[C@H]2[C@H](C)[C@@H](O[C@@H]3O[C@H](C)C[C@H](N(C)C)[C@H]3O)[C@](C)(O)C[C@@H](C)CN[C@H](C)[C@@H](O)[C@](C)(O)[C@@H](CC)OC(=O)[C@@H]2C)C[C@@]1(C)OC [TUL, tulathromycin]						5.403 (≈ 6.7 nM)	0.81%	379.5 (≈ 471 nM)	0.04	134.8 (≈ 167 nM)	0.03	629.9 (≈ 781 nM)							
CCOC(=O)CCC(=O)O[C@H]1[C@H](O[C@@H]2[C@@H](C)[C@H](O[C@H]3C[C@@](C)(OC)[C@@H](O)[C@H](C)O3)[C@@H](C)C(=O)O[C@H](CC)[C@@](C)(O)[C@H](O)[C@@H](C)C(=O)[C@H](C)C[C@@]2(C)O)O[C@H](C)C[C@@H]1N(C)C [ESE, erythromycin ethyl succinate]		43.7				0.074	59.5%	0.352	44.6	0.094	45.7	0.466	37% and 36.9%						
CC[C@H]1OC(=O)[C@H](C)[C@@H](O[C@H]2C[C@@](C)(OC)[C@@H](O)[C@H](C)O2)[C@H](C)[C@@H](O[C@@H]2O[C@H](C)C[C@H](N(C)C)[C@H]2O)[C@](C)(O)C[C@@H](C)CN(C)[C@H](C)[C@@H](O)[C@]1(C)O [AZI, azithromycin]	5.7		0.9	1.63 (≈ 2.18 nM)	9% and 8.8%	0.107 (≈ 0.143 nM)	41% and 41.1%	1.220 (≈ 1.63 nM)	12.9	0.315 (≈ 0.421 nM)	13.7	1.990 (≈ 2.66 nM)	9% and 8.6%	16.2					13–41%
